The nature of data set [1]: Rat renal blood flow studies. It counts as in vivo, Sprague Dawley rats. To be noted: 1 mg/kg intravenously; for % change in RBF over baseline: anesthetized male Sprague Dawley rats, renal blood flow recorded for 45 min. The method, then:
Male Sprague Dawley rats (˜250-300 g) were anesthetized with sodium pentobarbital (50 mg/kg), the trachea was cannulated with PE-205 tubing to maintain airway patency, and temperature was maintained at 37° C. with a heated surgical plate. A 1.4 F pressure catheter (Millar Inc., Houston, TX) was advanced into the right carotid artery to measure aortic blood pressure. The right jugular vein was cannulated with PE-50 tubing for administration of test articles. The left kidney was exposed by a retroperitoneal incision, and a Doppler flow probe (Model 0.5 VB, Transonic System Inc., Ithaca, NY) was attached to the left renal artery to monitor blood flow. Sodium pentobarbital (15 mg/kg, intraperitoneal) was supplemented after completion of these surgical procedures. Following a 10-15 min equilibration, the relaxin was administered at 1 mg/kg intravenously in a dosing volume of 0.15 to 1.82 mL/kg over 30 seconds via an infusion pump (Harvard Apparatus, Holliston, MA). Blood pressure, heart rate and renal blood flow were continuously recorded for 45 min after relaxin administration using a Millar MPVS Ultra Signal Conditioning unit connected to a desktop computer running LabChart 7-Pro data acquisition software (ADInstruments, Dunedin, New Zealand) (Table 5). Table 5. Rat renal blood flow changes (abbreviations as in Table 3).

Data set [2] is described as follows: In vivo pharmacokinetic (PK) studies in rats. On the set-up: species or system Sprague-Dawley rats. Particulars: rats, SC dose 1.0 mg/kg, adjusted from 0.2 mpk. Put shortly: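 Male Sprague-Dawley rats (n=3) given a single 1 mg/kg IV or SC dose of relaxin constructs in 20 mM histidine, 750 mM NaCl, pH 6.0; jugular serum sampled to 72 h. Serum relaxin by ELISA; Cmax, AUCinf, C24 and half-life from non-compartmental analysis of individual profiles.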

“Also recorded” adds a separate entry of the source. Marks after values point to notes of the source that are not given here. Square brackets hold non-standard residues; d marks the D form. Ends that are not written are not given here. Phe(4-Ac) = CC(=O)c1ccc(C[C@H](N)C(=O)O)cc1

Take `CCCCCCCCCCCCCC(=O)N[C@@H](CCC(=O)NCCO/N=C(\C)c1ccc(C[C@H](N)C(=O)N[C@@H](CC(C)C)C(=O)N[C@@H](Cc2ccc(O)cc2)C(=O)N[C@@H](CO)C(=O)N[C@@H](C)C(=O)N[C@@H](CC(C)C)C(=O)N[C@@H](C)C(=O)N[C@@H](CC(N)=O)C(=O)N[C@@H](CCCCN)C(=O)N[C@H]2CSSC[C@@H]3NC(=O)CNC(=O)[C@H](C(C)C)NC(=O)[C@H](Cc4c[nH]cn4)NC(=O)[C@H](CSSC[C@H](NC(=O)[C@H](CC(C)C)NC(=O)[C@H](CCCCN)NC(=O)[C@@H](NC(=O)[C@@H](NC(=O)[C@H](CCC(=O)O)NC(=O)[C@H](CCC(=O)O)NC(=O)[C@H](CCSC)NC(=O)[C@H](Cc4c[nH]c5ccccc45)NC(=O)[C@H](CO)NC(=O)[C@H](C)N)C(C)C)[C@@H](C)CC)C(=O)NCC(=O)N[C@@H](CCCNC(=N)N)C(=O)N[C@@H](CCC(=O)O)C(=O)N[C@@H](CC(C)C)C(=O)N[C@@H](C(C)C)C(=O)N[C@@H](CCCNC(=N)N)C(=O)N[C@@H](C)C(=O)N[C@@H](CCC(N)=O)C(=O)N[C@@H]([C@@H](C)CC)C(=O)N[C@@H](C)C(=O)N[C@@H]([C@@H](C)CC)C(=O)N[C@H](C(=O)NCC(=O)N[C@@H](CCSC)C(=O)N[C@@H](CO)C(=O)N[C@H](C(=O)N[C@@H](Cc4c[nH]c5ccccc45)C(=O)N[C@@H](CO)C(=O)O)[C@@H](C)O)CSSC[C@@H](C(=O)O)NC(=O)[C@H](Cc4ccccc4)NC(=O)[C@H](CCCNC(=N)N)NC(=O)[C@H](C)NC(=O)[C@H](CC(C)C)NC(=O)[C@H](CO)NC(=O)[C@H](CCCNC(=N)N)NC(=O)[C@H](CCCCN)NC(=O)[C@H]([C@@H](C)O)NC3=O)NC2=O)cc1)C(=O)O` [AQ1-Glu-C13-CH3]: the “% change in RBF over baseline” value in data set [1] is given as −27^b %. Moreover, in data set [1] (rats, 1 mg/kg), the “effect on renal blood flow (in words)” value is “impaired renal blood flow; also recorded: decreased renal blood flow”.
For the molecule `CC[C@H](C)[C@@H]1NC(=O)[C@H](C)NC(=O)[C@H]([C@@H](C)CC)NC(=O)[C@H](CCC(N)=O)NC(=O)[C@H](C)NC(=O)[C@H](CCCNC(=N)N)NC(=O)[C@H](C(C)C)NC(=O)[C@H](CC(C)C)NC(=O)[C@H](CCC(=O)O)NC(=O)[C@H](CCCNC(=N)N)NC(=O)CNC(=O)[C@@H](NC(=O)[C@H](CC(C)C)NC(=O)[C@H](CCCCN)NC(=O)[C@@H](NC(=O)[C@@H](NC(=O)[C@H](CCC(=O)O)NC(=O)[C@H](CCC(=O)O)NC(=O)[C@H](CCSC)NC(=O)[C@H](Cc2c[nH]c3ccccc23)NC(=O)[C@H](CO)NC(=O)[C@H](C)N)C(C)C)[C@@H](C)CC)CSSC[C@@H]2NC(=O)[C@@H](NC(=O)[C@H](CCCCN)NC(=O)[C@H](CC(N)=O)NC(=O)[C@H](C)NC(=O)[C@H](CC(C)C)NC(=O)[C@H](C)NC(=O)[C@H](CO)NC(=O)[C@H](Cc3ccc(O)cc3)NC(=O)[C@H](CC(C)C)NC(=O)[C@@H](N)Cc3ccc(/C(C)=N/OCCNC(=O)CC[C@H](NC(=O)CCCCCCCCCCCCC(=O)O)C(=O)O)cc3)CSSC[C@H](NC(=O)CNC(=O)[C@H](C(C)C)NC(=O)[C@H](Cc3c[nH]cn3)NC2=O)C(=O)N[C@@H]([C@@H](C)O)C(=O)N[C@@H](CCCCN)C(=O)N[C@@H](CCCNC(=N)N)C(=O)N[C@@H](CO)C(=O)N[C@@H](CC(C)C)C(=O)N[C@@H](C)C(=O)N[C@@H](CCCNC(=N)N)C(=O)N[C@@H](Cc2ccccc2)C(=O)N[C@H](C(=O)O)CSSC[C@@H](C(=O)NCC(=O)N[C@@H](CCSC)C(=O)N[C@@H](CO)C(=O)N[C@H](C(=O)N[C@@H](Cc2c[nH]c3ccccc23)C(=O)N[C@@H](CO)C(=O)O)[C@@H](C)O)NC1=O` [AQ1-Glu-C13-COOH], the “% change in RBF over baseline” value in data set [1] was “+14^b %”.
With `CCCCCCCCCCCCCC(=O)N[C@@H](CCC(=O)NCCOCCOCCOCCOCCOCCOCCOCCOCCOCCOCCOCCOCCOCCOCCOCCOCCOCCOCCOCCOCCOCCOCCOCCOCCOCCOCCOCCOCCOCCOCCOCCOCCOCCOCCOCCOCCC(=O)NCCO/N=C(\C)c1ccc(C[C@H](N)C(=O)N[C@@H](CC(C)C)C(=O)N[C@@H](Cc2ccc(O)cc2)C(=O)N[C@@H](CO)C(=O)N[C@@H](C)C(=O)N[C@@H](CC(C)C)C(=O)N[C@@H](C)C(=O)N[C@@H](CC(N)=O)C(=O)N[C@@H](CCCCN)C(=O)N[C@H]2CSSC[C@@H]3NC(=O)CNC(=O)[C@H](C(C)C)NC(=O)[C@H](Cc4c[nH]cn4)NC(=O)[C@H](CSSC[C@H](NC(=O)[C@H](CC(C)C)NC(=O)[C@H](CCCCN)NC(=O)[C@@H](NC(=O)[C@@H](NC(=O)[C@H](CCC(=O)O)NC(=O)[C@H](CCC(=O)O)NC(=O)[C@H](CCSC)NC(=O)[C@H](Cc4c[nH]c5ccccc45)NC(=O)[C@H](CO)NC(=O)[C@H](C)N)C(C)C)[C@@H](C)CC)C(=O)NCC(=O)N[C@@H](CCCNC(=N)N)C(=O)N[C@@H](CCC(=O)O)C(=O)N[C@@H](CC(C)C)C(=O)N[C@@H](C(C)C)C(=O)N[C@@H](CCCNC(=N)N)C(=O)N[C@@H](C)C(=O)N[C@@H](CCC(N)=O)C(=O)N[C@@H]([C@@H](C)CC)C(=O)N[C@@H](C)C(=O)N[C@@H]([C@@H](C)CC)C(=O)N[C@H](C(=O)NCC(=O)N[C@@H](CCSC)C(=O)N[C@@H](CO)C(=O)N[C@H](C(=O)N[C@@H](Cc4c[nH]c5ccccc45)C(=O)N[C@@H](CO)C(=O)O)[C@@H](C)O)CSSC[C@@H](C(=O)O)NC(=O)[C@H](Cc4ccccc4)NC(=O)[C@H](CCCNC(=N)N)NC(=O)[C@H](C)NC(=O)[C@H](CC(C)C)NC(=O)[C@H](CO)NC(=O)[C@H](CCCNC(=N)N)NC(=O)[C@H](CCCCN)NC(=O)[C@H]([C@@H](C)O)NC3=O)NC2=O)cc1)C(=O)O` [AQ1-PEG36-Glu-C13-CH3], in data set [1], the “% change in RBF over baseline” value was “+20^b %”. Further, the “effect on renal blood flow (in words)” value in data set [1] (rats, 1 mg/kg) is “increased renal blood flow; also recorded: good renal blood flow”.
With `CCCCCCCCCCCCCC(=O)NCCO/N=C(\C)c1ccc(C[C@H](NC(=O)CNC(=O)[C@@H]2CSSC[C@@H](C(=O)O)NC(=O)[C@H](Cc3ccccc3)NC(=O)[C@H](CCCNC(=N)N)NC(=O)[C@H](C)NC(=O)[C@H](CC(C)C)NC(=O)[C@H](CO)NC(=O)[C@H](CCCNC(=N)N)NC(=O)[C@H](CCCCN)NC(=O)[C@H]([C@@H](C)O)NC(=O)[C@@H]3CSSC[C@H](NC(=O)[C@H](CCCCN)NC(=O)[C@H](CC(N)=O)NC(=O)[C@H](C)NC(=O)[C@H](CC(C)C)NC(=O)[C@H](C)NC(=O)[C@H](CO)NC(=O)[C@H](Cc4ccc(O)cc4)NC(=O)[C@H](CC(C)C)NC(=O)[C@@H](N)CC(N)=O)C(=O)N[C@@H](CSSC[C@H](NC(=O)[C@H](CC(C)C)NC(=O)[C@H](CCCCN)NC(=O)[C@@H](NC(=O)[C@@H](NC(=O)[C@H](CCC(=O)O)NC(=O)[C@H](CCC(=O)O)NC(=O)[C@H](CCSC)NC(=O)[C@H](Cc4c[nH]c5ccccc45)NC(=O)[C@H](CO)NC(=O)[C@H](C)N)C(C)C)[C@@H](C)CC)C(=O)NCC(=O)N[C@@H](CCCNC(=N)N)C(=O)N[C@@H](CCC(=O)O)C(=O)N[C@@H](CC(C)C)C(=O)N[C@@H](C(C)C)C(=O)N[C@@H](CCCNC(=N)N)C(=O)N[C@@H](C)C(=O)N[C@@H](CCC(N)=O)C(=O)N[C@@H]([C@@H](C)CC)C(=O)N[C@@H](C)C(=O)N[C@@H]([C@@H](C)CC)C(=O)N2)C(=O)N[C@@H](Cc2c[nH]cn2)C(=O)N[C@@H](C(C)C)C(=O)NCC(=O)N3)C(=O)N[C@@H](CO)C(=O)N[C@H](C(=O)N[C@@H](Cc2c[nH]c3ccccc23)C(=O)N[C@@H](CO)C(=O)O)[C@@H](C)O)cc1` [BM25/AN1-C13-CH3], the “% change in RBF over baseline” value in data set [1] is given as −100^a %. Moreover, in data set [1] (rats, 1 mg/kg), the “effect on renal blood flow (in words)” value is reported as “impaired renal blood flow; also recorded: decreased renal blood flow”. Also, the “death of animals after administration” value in data set [1] (rats, necropsy pale kidneys, 1 mg/kg) is listed as “fatal”.
With “AQ1-20kDa PEG: AQ1 relaxin conjugated to PEG with an average MW of 20 kDa (chain 1 XLYSALANKCCHVGCTKRSLARFC; chain 2 ASWMEEVIKLCGRELVRAQIAICGMSTWS; non-natural residues)”, the “% change in RBF over baseline” value in data set [1] was “+21%”. Further, in data set [1] (rats), the “effect on renal blood flow (in words)” value was “increased renal blood flow”. In data set [2], the “Rat PK AUC Total” value was 1.475 µM·h. Further, in data set [2] (read-out: Rat PK C24), the level at time molar at 24 h came to 39 nM.
On to “BM25/AN1: human relaxin 2 with pAcF at B chain position 25 and asparagine at A chain position 1 (SEQ ID NO: 36, 37) (chain 1 NLYSALANKCCHVGCTKRSLARFC; chain 2 ASWMEEVIKLCGRELVRAQIAICG[Phe(4-Ac)]STWS; disulfide (positions not given here); ends not checked)”, for which the “% change in RBF over baseline” value in data set [1] was −20%. The “effect on renal blood flow (in words)” value in data set [1] (rats) was “impaired renal blood flow”.

The values are drawn from US12097241B2, “Methods of treating kidney failure, and/or improving or stablizing renal function using modified relaxin polypeptides” (BRISTOL-MYERS SQUIBB COMPANY, priority 2017, dated 2024).
